According to article PMC8868346, “Novel Series of Dual NRF2 Inducers and Selective MAO-B Inhibitors for the Treatment of Parkinson’s Disease” (Antioxidants, 2022):
Read-outs that look alike come from different tables or passages of the source.

Key:
[1] = Blood–brain barrier permeation assay (PAMPA); conditions: for PAMPA Prediction: BBB permeability class from Pe
Method: (§7) Briefly, permeability of the compounds was measured at an initial concentration of 100 µM, including positive and negative controls (Supplementary Data; Table S3). […] After 5 min, 180 µL of each compound solution in PBS (10 mM, pH 7.4) was added to determine their ability to pass the membrane (VD). The 96-well acceptor plate (Multiscreen, Millipore Corp., Madrid Spain) was loaded with 180 µL of PBS (VA). Then, the donor filter plate was carefully placed on the acceptor plate to form a sandwich-like system, which was left undisturbed for 4 h at room temperature. After incubation, the donor plate was removed and the absorbance at the maximum absorption wavelength for each compound was recorded in both the acceptor and donor wells (150 µL/well) using a UV plate reader SPECTROstar Nano (BMG Labtech, Ortenberg, Germany). Concentration of the compounds in the donor and acceptor plates and equilibrium concentration were calculated and expressed as permeability (Pe) according the Equation (1). Results are expressed as mean ± standard error of the mean (SEM) of at least three different experiments in duplicate:(1) logPe =log{C×−ln(1−[drug]acceptor/[drug]equilibrium)} where C=(VD×VA/(VD +VA)×Area×Time) .

[2] = system: blood-brain barrier (passive diffusion); test: in vitro; conditions: PAMPA, pH 7.4
Method: as §7

AREc32 = conditions: MTT reduction
Method: AREc32 cells, shared by CR Wolf, were grown in Dulbecco’s modified Eagle medium (DMEM) with GlutaMAX (Gibco, Invitrogen, Madrid, Spain), supplemented with 10% (v/v) filtrated fetal bovine serum (FBS; Gibco, Invitrogen, Madrid, Spain), 1% of antibiotics penicillin-streptomycin, and geneticin (0.8 mg/mL G418; Gibco, Invitrogen, Madrid, Spain). […] They were recovered by centrifugation at 800 rpm for 10 min. Cells were used from the third to twelfth passage.
(§1) Basal absorbance was set to 100% and results were normalized to basal conditions.
(§2) Cytotoxicity. LD50 values in several cell cultures employed
(§3) Table S2. Cytotoxicity elicited by 10-18 compounds in SH-SY5Y, AREc32 and mixed pr imary glial cultures. Viability was measured as MTT reduction in presence of increasing concentrations of der ivatives. LD50 values were calcula ted from dose-response curves. Data are expr essed as mean ± SEM of at least 3 independent experiments.
(§4) 1.3. PAMPA control compounds (BBB permeability)
(§5) Table S3. Pr ediction of the BBB passive permeability of control compounds

hrMAO-B = target: T1, hrMAO-B (Homo sapiens, UniProt P27338); test: Inhibition of monoamine oxidase B (Amplex UltraRed, tyramine); format: biochemical; conditions: for Selectivity Index (MAO-A/MAO-B): ratio IC50 MAO-A/IC50 MAO-B
T1 construct: purchased Sigma–Aldrich
T1 sequence (P27338 1-520): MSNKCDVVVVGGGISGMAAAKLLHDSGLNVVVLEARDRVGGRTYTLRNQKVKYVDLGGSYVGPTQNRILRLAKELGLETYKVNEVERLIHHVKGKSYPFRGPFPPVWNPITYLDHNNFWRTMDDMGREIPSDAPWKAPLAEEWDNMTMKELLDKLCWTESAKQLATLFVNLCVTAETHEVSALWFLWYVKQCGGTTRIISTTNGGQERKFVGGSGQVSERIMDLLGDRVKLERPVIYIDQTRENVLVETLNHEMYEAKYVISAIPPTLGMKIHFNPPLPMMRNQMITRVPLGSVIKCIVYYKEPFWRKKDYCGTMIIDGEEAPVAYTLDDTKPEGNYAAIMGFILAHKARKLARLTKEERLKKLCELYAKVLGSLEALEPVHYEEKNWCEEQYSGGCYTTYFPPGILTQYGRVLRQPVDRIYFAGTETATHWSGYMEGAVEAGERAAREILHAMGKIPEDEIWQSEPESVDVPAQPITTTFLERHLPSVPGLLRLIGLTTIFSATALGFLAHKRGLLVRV

SH-SY5Y cells [3] = test: Neuroprotection in SH-SY5Y against rotenone/oligomycin A (MTT); format: cell-based, human; conditions: compound 0.1 µM, 24 h pre- and 24 h co-incubation
Method: (§6) Cells were seeded at a density of 60,000 cells/well in 96-well transparent plates for 24 h. Then cells were pre-incubated with the corresponding compound at 0.1 μM. After 24 h, the medium was removed and replaced with 1% (v/v) FBS media containing the corresponding compound at 0.1 µM and the selected toxic stimuli, namely a mixture of rotenone and oligomycin A (R/O; 30/10 μM, respectively; Sigma–Aldrich, Spain) or 6-hydroxydopamine (100 µM; Sigma–Aldrich, Spain). […].

[4] = system: Mixed primary glial cultures; test: Cytotoxicity in mixed primary glial cultures (MTT); conditions: MTT reduction
Method: Mixed primary glial cultures were obtained from cerebral cortex of 2–5-day-old Sprague–Dawley rats. Blood vessels and meninges were first removed in Hank’s balanced salt solution (HBSS) and then forebrains were dissociated in DMEM/F12 medium. After mechanical dissociation, filtering, and centrifugation at 800 rpm for 10 min, cells were plated at a density of 30,000 cells/well in DMEM/F12 medium with 20% (v/v) FBS and 1% penicillin/streptomycin (10,000 units). […] After 5 days, medium was substituted by DMEM/F12 medium with 10% (v/v) FBS. Cells were cultured for 7–10 days before treatment.
as §1, §2, §3, §4, §5

SH-SY5Y cells [5] = test: Neuroprotection in SH-SY5Y against 6-hydroxydopamine (MTT); format: cell-based, human; conditions: 6-OHDA 100 µM; compound 0.1 µM, 24 h pre- and 24 h co-incubation
Method: as §6

NRF2 = NRF2 induction, luciferase activity in AREc32 reporter cells; format: cell-based, human; conditions: for fold potentiation of NRF2 induction compared to the corresponding -OMe derivative: 11, 12 vs 10, 14, 15 vs 13; for EC50: Homo sapiens, read-out: CD (µM) NRF2 Induction; for EC50 / CD (µM) NRF2 Induction: AREc32 cells, 24 h, concentration required to double luciferase activity compared to basal
Method: Cells were used from the third to twelfth passage.
AREc32 cells were stably transfected with the plasmid pGL-8xARE that implements 8 copies of the antioxidant response element (ARE) sequences followed by luciferase reporter gen. Therefore, NRF2 induction can be related to the activation of ARE sequences by measuring luciferase activity in terms of luminescence production. For NRF2 induction experiments, cells were plated in 96 white flat bottom well plates (20,000 cells/well). After 24 h, cells were incubated with selected compounds at the desired concentrations in duplicates for 24 h. The Luciferase Assay System (Promega E1500) was used according to provider protocol and luminescence was quantified in an Orion II microplate luminometer (Berthold, Germany). Fold induction of luciferase activity was normalized to basal conditions. Data were expressed as CD values, which means the concentration needed to duplicate the luciferase activity compared to basal conditions. CD values were calculated from dose–response curves fitted by non-linear regression for each compound after logarithmic transformation of the data using GraphPad Prism 8.0 software.

MAO-B = target: T2, MAO-B (Homo sapiens, UniProt P27338); test: MAO-B reversibility assay (pre-incubation times); format: biochemical; conditions: 0, 15, 30 min pre-incubation at […] IC50
T2 construct: purchased Sigma–Aldrich
T2 sequence (P27338 1-520): T1 sequence (P27338 1-520)

hrMAO-A = target: T3, hrMAO-A (Homo sapiens, UniProt P21397); test: Inhibition of monoamine oxidase A (Amplex UltraRed, tyramine); format: biochemical
T3 construct: purchased Sigma–Aldrich
T3 sequence (P21397 1-527): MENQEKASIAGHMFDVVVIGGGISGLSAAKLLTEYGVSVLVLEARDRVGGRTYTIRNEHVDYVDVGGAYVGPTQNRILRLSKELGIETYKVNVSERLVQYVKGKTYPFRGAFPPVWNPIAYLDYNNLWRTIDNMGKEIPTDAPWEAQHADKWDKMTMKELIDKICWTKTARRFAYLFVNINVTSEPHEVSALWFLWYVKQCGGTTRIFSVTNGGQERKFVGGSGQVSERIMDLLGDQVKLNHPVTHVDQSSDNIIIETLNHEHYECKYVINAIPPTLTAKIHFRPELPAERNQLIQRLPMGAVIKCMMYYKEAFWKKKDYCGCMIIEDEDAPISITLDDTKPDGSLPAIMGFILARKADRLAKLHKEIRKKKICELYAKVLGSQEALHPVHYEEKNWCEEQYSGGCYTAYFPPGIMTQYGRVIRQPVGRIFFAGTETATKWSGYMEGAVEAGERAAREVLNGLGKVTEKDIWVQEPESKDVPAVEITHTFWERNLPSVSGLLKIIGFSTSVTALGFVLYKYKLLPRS

SH-SY5Y = conditions: MTT reduction
Method: They were recovered by centrifugation at 800 rpm for 10 min. Cells from the third to twelfth passage were seeded at a density of 80,000 cells/well in 96-well plates for the neuroprotection studies.
as §1, §2, §3, §4, §5

[6] = system: blood-brain barrier (passive diffusion); test: Blood–brain barrier permeation assay (PAMPA); conditions: PAMPA, pH 7.4
Method: as §7

[7] = Oxygen radical absorbance capacity (ORAC) assay; conditions: Trolox equivalents; AAPH, fluorescein
Method: The ORAC test was performed to evaluate the oxygen free radical scavenger capacity of the compounds. […] Compounds at desired concentrations (0.03, 0.1, 0.3, 1, 3, and 10 µM) were diluted in phosphate-buffered saline (PBS; 10 mM, pH 7.4) at 37 °C and placed in a 96 black flat bottom well plate. […] A fluorescence measurement was done first to determine the basal signal. Then, 25 µL of 2, 2′-azobis-amidinopropane dihydrochloride (AAPH) (12 mM final concentration) was quickly added. All samples were measured in duplicates in three different experiments. […] Results were expressed in terms of Trolox equivalents (T.eq.), obtained by plotting net AUC versus compound concentration, then performing linear regression and normalizing slopes of the compounds considering Trolox as reference.

[8] = 30 min pre-incubation, 37 °C, read-out: IC50 MAO-B
[9] = 30 min pre-incubation, 37 °C, read-out: IC50 MAO-A

Compound	PAMPA Prediction [1]	Papp [2]	LD50 (µM) AREc32 (AREc32)	IC50 (hrMAO-B)	R/O (30/10 µM) Protection (%) (SH-SY5Y cells [3])	LD50 (µM) Mixed primary glial cultures [4]	6-OHDA Protection (%) (SH-SY5Y cells [5])	fold potentiation of NRF2 induction compared to the corresponding -OMe derivative (NRF2)	EC50 (NRF2)	MAO-B inhibition reversibility (MAO-B)	IC50 (hrMAO-A)	LD50 (µM) SH-SY5Y (SH-SY5Y)	IC50 (hrMAO-B; [8])	IC50 (hrMAO-A; [9])	Papp at 4 h, 100 µM [6]	PAMPA Pe (10^−6 cm s^−1) ([1]; 100 µM, porcine brain lipid, 4 h, PBS pH 7.4)	MAO isozyme selectivity (hrMAO-B; MAO-B vs MAO-A)	Selectivity Index (MAO-A/MAO-B) (hrMAO-B)	ORAC (T. eq.) [7]	CD (µM) NRF2 Induction (NRF2)
Cn1c(=O)c2c(ncn2C)n(C)c1=O [Caffeine, reference compound]	CNS -	–	–	–	–	–	–	–	–	–	–	–	–	–	–	–	–	–	–	–
C#CCNCCc1c[nH]c2ccc(OC(=O)C=Cc3ccccc3)cc12 [Compound 11, 3-(2-(Prop-2-yn-1-ylamino)ethyl)-1H-indol-5-yl Cinnamate]	CNS + (CNS + (high BBB permeability): Pe (10^−6 cm s^−1) > 4.0)	5.08 ± 1.7 ×10⁻⁶ cm/s	7.83 ± 1.2 µM	3 ± 0.21 µM	48.6%	17.8 ± 2.9 µM	absence of protection	7 fold	1.8 ± 0.28 µM	reversible inhibition	43.8 ± 6.5 µM	16.4 ± 2.32 µM	–	–	–	–	–	–	–	–
C#CCNCCc1c[nH]c2ccc(OC(=O)/C=C/c3ccc(C)cc3)cc12 [Compound 12, 3-(2-(Prop-2-yn-1-ylamino)ethyl)-1H-indol-5-yl-(E)-3-(p-tolyl)acrylate]	CNS − (CNS—(low BBB permeability): Pe (10^−6 cm s^−1) < 2.0)	–	11.1 ± 2.0 µM	–	53.5%	7.42 ± 1.3 µM	absence of protection	10 fold	2.99 ± 0.26 µM	–	–	11.6 ± 0.90 µM	3.03 ± 0.27 µM	59.1 ± 6 µM	1.84 ± 0.48 ×10⁻⁶ cm/s	low Pe value	–	–	–	–
C#CC(=O)NCCc1c[nH]c2ccc(OC)cc12 [Compound 16, N-(2-(5-Methoxy-1H-indol-3-yl)ethyl) Propiolamide]	CNS + (CNS + (high BBB permeability): Pe (10^−6 cm s^−1) > 4.0)	–	–	–	47.3%	8.81 ± 2.2 µM	48.1%	–	1.35 ± 0.12 µM	–	–	4.87 ± 0.60 µM	> 100 µM	> 100 µM	6.64 ± 1.3 ×10⁻⁶ cm/s	–	not active	at least 2	2.67 ± 0.14 T. eq.	–
C#CC(=O)NCCc1c[nH]c2ccc(OC(=O)C=Cc3ccccc3)cc12 [Compound 17, 3-(2-Propiolamidoethyl)-1H-indol-5-yl Cinnamate]	–	–	< 1 µM	–	49.3%	–	58.4%	–	–	reversible inhibition	–	9.06 ± 0.31 µM	50 ± 2.9 µM	> 100 µM	3.12 ± 1.2 ×10⁻⁶ cm/s	–	–	–	2.27 ± 0.08 T. eq.	no activity
C#CC(=O)NCCc1c[nH]c2ccc(OC(=O)/C=C/c3ccc(C)cc3)cc12 [Compound 18, 3-(2-Propiolamidoethyl)-1H-indol-5-yl-(E)-3-(p-tolyl) Acrylate]	–	–	< 1 µM	–	32.1%	1.21 ± 0.24 µM	43.8%	–	–	–	–	–	13.9 ± 1.2 µM	81.9 ± 5.4 µM	2.04 ± 3.2 ×10⁻⁶ cm/s	–	–	5.89	1.42 ± 0.13 T. eq.	no activity
CC(C)(C)c1cc(O)ccc1O [TBHQ, Tert-Butylhydroquinone, reference compound]	–	–	–	–	–	–	–	–	1.82 ± 0.09 µM	–	–	–	–	–	–	–	–	–	–	–
